Measurements: patent US9828330B2, “Non-peptide BDNF neurotrophin mimetics” (PHARMATROPHIX, INC., priority 2013, dated 2017)
Several values for one entry are separate records, joined by “and”; a condition that tells them apart may be missing. Equal entries are not always repeated. Where two headings read alike, the source gives them in different places.

Key:
[1] = Brain-to-plasma ratio after intraperitoneal administration in male CD-1 mice (LC-MS/MS of plasma and brain homogenate); type: in vivo; settings: for concentration at 1 h / concentration at 3 h / Kp at 1 h / Kp at 3 h: male, CD-1, mouse, ip; for Kp at 1 h / Kp at 3 h: brain/plasma
Procedure: (§1) In this study, the brain-to-plasma ratio of compounds of the invention was evaluated after intraperitoneal dosing in fasted male CD-1 mice. Test compounds were dosed at 50 mg/kg in sterile water for injection. Plasma and brain homogenate levels were determined at 1 and 3 hours post dose by LC-MS/MS. […] Penetration of the present compounds through the blood-brain barrier allows the compounds to exerts their receptor binding activity to achieve the therapeutic effects.
All data are expressed as ng/mL (equivalent to ng/g for calculation of brain:plasma ratio) of the free drug. Samples that were below the limit of quantitation were not used in the calculation of averages.
Brain-to-plasma ratios were determined by dividing the brain concentration in ng/g by the plasma concentration in ng/g.
Brain samples were homogenized with a Virsonic 100 ultrasonic homogenizer. Each brain sample was first weighed, and then an appropriate volume of 20:80 methanol:water was added to make a 4 mL/1 gram sample. Samples were then homogenized on ice, and stored frozen until analysis.
Standards samples were prepared in either CD-1 Mouse plasma containing K2EDTA as an anticoagulant or CD-1 mouse brain homogenate. Working solutions (200 μg/mL and/or 20 μg/mL for each test compound) was prepared in 50:50 ACN:water. Then, a nine-point calibration curve was prepared at concentrations of 2000, 1500, 1000, 500, 100, 50, 20, 10, and 5 ng/mL of each test compound by serial dilution; or for a high-sensitivity method, another nine point calibration curve was prepared at concentrations of 200, 150, 100, 50, 10, 5, 2, 1, and 0.5 ng/mL of each test compound by serial dilution. Standard samples were treated identically to the study samples.
Plasma and brain homogenate samples were extracted via acetonitrile precipitation on a Tomtec Quadra 96-Model 320 liquid handling system in a 96-well plate format.
HPLC Conditions • Instrument: Perkin Elmer series 200 micropumps and Autosampler • Column: Phenomenex Synergi Polar-RP, 4μ, 80A, 50×2.0 mm • Mobile Phase Buffer: 40 mM ammonium formate, pH 3.5 • Aqueous Reservoir (A): 10% buffer, 90% water • Organic Reservoir (B): 10% buffer, 90% acetonitrile • Gradient Program:
• Flow Rate: 400 μL/min • Injection Volume: […], • Run Time: 5.0 min • Column Temperature: ambient • Autosampler Wash Solution #1: ACN:IPA:H2O 40:30:30 (v/v/v) w/0.2% formic acid • Autosampler Wash Solution #2: MeOH:H2O 50:50 (v/v) Mass Spectrometer Conditions (for Calibration Curve from 5 to 2000 ng/mL) • Instrument: PE Sciex API 4000 • Interface: Electrospray (“Turbo Ion Spray”) • Mode: Multiple Reaction Monitoring (MRM) • Gases: CUR 20, GS1 20, GS2 10, CAD Medium, IS 5200 • Source Temperature: 500° C., ihe OFF • Voltages and Ions Monitored*:
Mass Spectrometer Conditions (for Calibration Curve from 0.5 to 200 ng/mL, High Sensitivity Method) • Instrument: PE Sciex API 4000 Q TRAP • Interface: Electrospray (“Turbo Ion Spray”) • Mode: Multiple Reaction Monitoring (MRM) • Gases: CUR 20, GS1 20, GS2 10, CAD Medium, IS 5200 • Source Temperature: 500° C., ihe OFF • Voltages and Ions Monitored*: […]

[2] = Observations and adverse reactions after intraperitoneal administration in CD-1 mice; type: in vivo; settings: IP 50 mg/kg
Procedure: as §1

[3] = 1.0 hr after IP dosing at 50 mg/kg, individual fasted male CD-1 mice, 50 mg/kg
[4] = 1.0 hr after IP dosing at 50 mg/kg, individual mice, 50 mg/kg
[5] = 1.0 hr after IP dosing at 50 mg/kg, mean of mice, 50 mg/kg
[6] = 3.0 hr after IP dosing at 50 mg/kg, individual fasted male CD-1 mice, BLQ = below 0.5 ng/mL, 50 mg/kg
[7] = 3.0 hr after IP dosing at 50 mg/kg, individual mice, 50 mg/kg
[8] = 50 mg/kg, 1.0 hr after IP dosing at 50 mg/kg, mean of mice, read-out: Average B:P Ratio
[9] = 50 mg/kg, 3.0 hr after IP dosing at 50 mg/kg, individual mice, read-out: B:P Ratio
[10] = 50 mg/kg, 3.0 hr after IP dosing at 50 mg/kg, mean of mice (Compound-3: one animal only), read-out: Average B:P Ratio
[11] = plasma, 50 mg/kg, 1.0 hr after IP dosing at 50 mg/kg, individual mice, read-out: Plasma Conc

Row | Structure (SMILES) | Brain Tissue Homogen. Conc [1, 3] | B:P Ratio [1, 4] | Brain Tissue Conc [1, 4] | Plasma Conc [1, 4] | Average B:P Ratio [1, 5] | Brain Tissue Homogen. Conc [1, 6] | Plasma Conc [1, 7] | Kp at 1 h [1, 8] | Kp at 3 h [1, 9] | Kp at 3 h [1, 10] | concentration at 1 h [1, 11] | Adverse effects after intraperitoneal administration [2] | other results
1 | CC(c1ccc(N(CCO)CCO)cc1)c1ccc(N(CCO)CCO)cc1 [Compound-3, 2,2′,2″,2′″-((ethane-1,1-diylbis(4,1-phenylene))bis(azanetriyl))-tetraethanol] | 2.87 µg/mL and 2.24 µg/mL | 0.27 and 0.36 | 14.4 µg/mL and 11.2 µg/mL | 52.6 ng/mL and 30.9 ng/mL | 0.328 | BLQ | 2.02 ng/mL and 1.67 ng/mL | 0.328 ± 0.048 | 1.14 | 1.14 | 31.8 ng/mL | No adverse effects were observed | Average B:P Ratio ([1]; 3.0 hr after IP dosing at 50 mg/kg, mean of mice (Compound-3: one animal only)): 1.14; concentration at 1 h ([1]; brain homogenate, 50 mg/kg, 1.0 hr after IP dosing at 50 mg/kg, individual fasted male CD-1 mice, read-out: Brain Tissue Homogen. Conc): 2210 ng/mL; concentration at 3 h ([1]; brain homogenate, 50 mg/kg, 3.0 hr after IP dosing at 50 mg/kg, individual fasted male CD-1 mice, BLQ = below 0.5 ng/mL, read-out: Brain Tissue Homogen. Conc): 611 ng/mL; concentration at 1 h ([1]; brain, 50 mg/kg, 1.0 hr after IP dosing at 50 mg/kg, individual mice, read-out: Brain Tissue Conc): 11100 ng/mL; concentration at 3 h ([1]; brain, 50 mg/kg, 3.0 hr after IP dosing at 50 mg/kg, individual mice, read-out: Brain Tissue Conc): 3060 ng/mL; Kp at 1 h ([1]; 50 mg/kg, 1.0 hr after IP dosing at 50 mg/kg, individual mice, read-out: B:P Ratio): 0.35; concentration at 3 h ([1]; plasma, 50 mg/kg, 3.0 hr after IP dosing at 50 mg/kg, individual mice, read-out: Plasma Conc): 2.67 ng/mL
2 | COCCN(CCOC)c1ccc(C(C)c2ccc(N(CCOC)CCOC)cc2)cc1 [Compound-2, 4,4′-(ethane-1,1-diyl)bis(N,N-bis(2-methoxyethyl)aniline)] | 41.6 µg/mL and 122 µg/mL and 25.2 µg/mL | 0.58 and 0.99 and 0.34 | 208 µg/mL and 610 µg/mL and 126 µg/mL | 614 ng/mL and 369 ng/mL | 0.638 | 26.3 µg/mL and 12.2 µg/mL and 6.22 µg/mL | 202 ng/mL and 108 ng/mL and 63.1 ng/mL | 0.638 ± 0.33 | 0.65 | 0.57 ± 0.079 | 359 ng/mL | No adverse effects were observed | B:P Ratio [1, 7]: 0.56 and 0.49; Brain Tissue Conc [1, 7]: 132 µg/mL and 61.0 µg/mL and 31.1 µg/mL; Average B:P Ratio ([1]; 3.0 hr after IP dosing at 50 mg/kg, mean of mice (Compound-3: one animal only), 50 mg/kg): 0.570
